Laboratory results taken from patent US12527782B2, “Use of hexokinase 2/mitochondria-detaching compounds for treating hexokinase-2 (HK2)-expressing cancers” (Vidac Pharma Ltd., priority 2016, dated 2026).
Entries after “also recorded” stand apart in the source; their conditions may differ.

Key:
Colon CXF HCT 116 = test: CFA, CXF HCT 116; format: cell-based, human; conditions: PDX/CFA
Description: (§1) CFA was performed by Charles River Laboratories (Freiburg, Germany) in 96-well plate format according to a modified two-layer soft agar assay. The origin of the tumor xenografts has been described (Fiebig et al. 1989, incorporated herein by reference). The list of tumors used in this study is detailed in Table 1.

[1] = tested on: Leukemia (ALL) LEXFAL CCRF-CEM; test: CFA, LEXFAL CCRF-CEM; format: cell-based, human; conditions: Cell line/CFA
Description: as §1

[2] = tested on: Leukemia (AML) LEXFAM OCI-AML2; test: CFA, LEXFAM OCI-AML2; format: cell-based, human; conditions: Cell line/CFA
Description: as §1

[3] = tested on: Leukemia (BCLL) LEXFCM MEG-01; test: CFA, LEXFCM MEG-01; format: cell-based, human; conditions: Cell line/CFA
Description: as §1

Liver (HCC) LIXFH Hep G2 = test: CFA, LIXFH Hep G2; format: cell-based, human; conditions: Cell line/CFA
Description: as §1

[4] = tested on: Lung (NSCLC, adeno) LXFA 1041; test: CFA, LXFA 1041; format: cell-based, human; conditions: PDX/CFA
Description: as §1

[5] = tested on: Lung (NSCLC, epidermoid) LXFE 690; test: CFA, LXFE 690; format: cell-based, human; conditions: PDX/CFA
Description: as §1

Lung (SCLC) LXFS 538 = test: CFA, LXFS 538; format: cell-based, human; conditions: PDX/CFA
Description: as §1

[6] = tested on: Lymphoma (Non-Hodgkin) LYXFNH RAJI; test: CFA, LYXFNH RAJI; format: cell-based, human; conditions: Cell line/CFA
Description: as §1

Breast MAXF MDA-MB-231 = test: CFA, MAXF MDA-MB-231; format: cell-based, human; conditions: Cell line/CFA
Description: as §1

Breast MAXF 401 = test: CFA, MAXF 401; format: cell-based, human; conditions: PDX/CFA
Description: as §1

Prostate PRXF MRI-H-1579 = test: CFA, PRXF MRI-H-1579; format: cell-based, human; conditions: Cell line/CFA
Description: as §1

Prostate PC-3 = test: XTT cell viability assay, PC-3; format: cell-based, human; conditions: Cell line/XTT
Description: (§2) For XTT assays, cells were plated in 96-well plates (5,000 cells per well) for 24 hours. Cells were then incubated with different concentrations of Formula C in triplicates for 72 hr in DMEM supplemented with 0.5% FCS and 5 mM Glucose. Cell viability was evaluated using 2,3-bis-(2-methoxy-4-nitro-5-sulfophenyl)-2H-tetrazolium-5-carboxanilide (XTT)-based colorimetric assay kit (Biological Industries Ltd., Kibbutz Beit-Haemek, Israel). The optical density was measured by an Infinite 200 ELISA reader at 450 nm and reference was measured at 630 nm (Tecan, Männedorf, Switzerland).

[7] = tested on: Cutanous T cell lymphoma HH; test: XTT cell viability assay, HH; format: cell-based, human; conditions: Cell line/XTT
Description: as §2

A431 cells = test: Apoptosis: cytochrome C in mitochondrial fraction (WB), A431 cells; format: cell-based, human; conditions: within 2 hours of treatment, WB semi-quantification
Description: Antibodies used: anti-rabbit HK1 (C-20245) and HK2 (C-28765) from CST (Danvers, MA), anti-rabbit PPIA (ab41684, Abcam), anti-rabbit TIM22 (14927-1-AP, Proteintech Group Inc., Rosemont, IL), anti-rabbit Cytochrome C (PA1118, Boster Biological Technology, Pleasanton, CA). Detection was performed using secondary antibodies: peroxidase-conjugated Affinipure goat anti-rabbit IgG (H+L) or goat anti-mouse IgG (H+L) (111-035-003 and 115-035-003, Jackson ImmunoResearch, West Grove, PA), and development was using the ECL kit WesternBright™ ECL (K-12045-D10, Advansta, Menlo Park, California, USA).
Apoptosis induction was determined by semi-quantification of cytochrome C levels in the mitochondrial fraction analyzed by WB, following 2 hours of treatment with Formula C in A431 cells. Cleaved caspase-3 levels were analyzed following 6 hours of Formula C treatment in A431 cells, using PathScan® Cleaved Caspase-3 Sandwich ELISA kit (CST, Danvers, MA).

[8] = tested on: panel of 57 patient-derived tumors and cancer cell lines; test: CFA panel of 57 patient-derived tumors and cancer cell lines; format: cell-based, human
Description: as §1

HK1 = biological target: T1, HK1 (Homo sapiens, UniProt P19367); test: HK catalytic activity coupled enzymatic assay, HK1; format: biochemical; design: dose or concentration left out as unconfirmed; conditions: as a function of ATP or glucose; absence or presence of Formula C
T1 construct: host or cells: E. coli
Description: (§3) A431 (human skin SCC), HT-297.T (human AK), and HaCaT transformed normal keratinocyte cell lines were from ATCC (Manassas, VA) and were maintained in DMEM supplemented with 10% FCS, 4 mM L-Gln, 1 mM sodium pyruvate, 100 U/mL penicillin, 1 μg/mL streptomycin. Human HK1 and HK2 plasmids were purchased from Addgene (Cambridge, MA) and were purified from E. Coli. VDAC1 was purified from sheep liver mitochondria as described (Arbel et al. 2012, incorporated herein by reference). Human skin tissue microarray (SK208 and SK 805) were purchased from US Biomax Inc. (Rockville, MD).
(§4) Hexokinase catalytic activity was determined by the coupled enzymatic assay in which hexokinase catalyzes the conversion of glucose to G6P, which is then oxidized by glucose-6-phosphate dehydrogenase (G6PDH) in the presence of NADP to form 6-Phospho-D-Gluconate and NADPH. NADPH production results in a colorimetric signal at 340 nm, which is proportional to the hexokinase catalytic activity. The readings were recorded in an ELISA plate reader Infinite 200 ELISA reader (Tecan, Männedorf, Switzerland).

HK2 = biological target: T2, HK2 (Homo sapiens, UniProt P52789); test: HK catalytic activity coupled enzymatic assay, HK2; format: biochemical; conditions: as a function of ATP or glucose; absence or presence of 10 M Formula C
T2 construct: host or cells: E. coli
Description: as §3, §4

[9] = Skin irritation in naïve SKH-1 mice; format: in vivo, mouse; conditions: skin of naïve SKH-1 mice
[10] = Phase 2a in subjects with actinic keratosis, pharmacokinetics; format: in vivo, human; conditions: subjects with AK; topical application
Description: The Phase 2 clinical trial was a multiple-center randomized, double-blind, placebo-controlled, parallel-cohorts study to evaluate the efficacy, safety, tolerability, and pharmacokinetics of once-daily application of topical Formula C ointment (QD 200 mg) for 28 days in subjects with actinic keratosis. Subjects were followed for one or two months after they completed treatment (through day 56 or day 84). The primary and exploratory efficacy endpoints for the study were reduction in the number of lesions on days 56 and 84, respectively. Subjects were randomly assigned in a double-blind fashion to one of three parallel treatment cohorts (5%, or 10% Formula C, or placebo) at a ratio of 1:1:1. To qualify for the study, subjects aged 18 (inclusive) or older must have had 4-8 discrete Grade 1 or 2 AK lesions within a 25-centimeter squared area of the skin of their scalp or face. The study enrolled 93 subjects in the US and Israel.

T1 sequence (P19367 whole entry): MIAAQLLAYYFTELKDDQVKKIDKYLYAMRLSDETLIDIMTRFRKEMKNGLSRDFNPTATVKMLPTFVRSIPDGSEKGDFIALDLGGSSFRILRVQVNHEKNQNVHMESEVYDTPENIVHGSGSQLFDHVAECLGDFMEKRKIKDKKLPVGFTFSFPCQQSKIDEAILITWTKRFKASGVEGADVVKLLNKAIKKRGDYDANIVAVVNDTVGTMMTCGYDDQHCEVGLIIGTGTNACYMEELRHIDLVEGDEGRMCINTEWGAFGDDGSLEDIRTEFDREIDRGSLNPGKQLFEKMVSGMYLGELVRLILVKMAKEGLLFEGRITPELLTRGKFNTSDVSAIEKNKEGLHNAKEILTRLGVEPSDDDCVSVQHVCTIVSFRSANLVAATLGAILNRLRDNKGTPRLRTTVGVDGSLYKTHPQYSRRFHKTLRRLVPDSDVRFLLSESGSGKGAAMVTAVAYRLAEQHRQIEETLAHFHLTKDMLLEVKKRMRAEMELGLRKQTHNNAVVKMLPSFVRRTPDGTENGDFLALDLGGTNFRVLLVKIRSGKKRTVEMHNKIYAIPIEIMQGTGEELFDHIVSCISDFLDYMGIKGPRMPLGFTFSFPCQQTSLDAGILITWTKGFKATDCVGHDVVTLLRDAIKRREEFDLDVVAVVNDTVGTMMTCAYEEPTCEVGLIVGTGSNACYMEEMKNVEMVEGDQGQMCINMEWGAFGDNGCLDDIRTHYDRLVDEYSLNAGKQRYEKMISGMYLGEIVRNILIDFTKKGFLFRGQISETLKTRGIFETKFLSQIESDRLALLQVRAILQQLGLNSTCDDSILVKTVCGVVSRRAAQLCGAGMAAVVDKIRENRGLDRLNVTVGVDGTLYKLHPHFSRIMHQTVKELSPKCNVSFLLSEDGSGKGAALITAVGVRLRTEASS
T2 sequence (P52789 whole entry): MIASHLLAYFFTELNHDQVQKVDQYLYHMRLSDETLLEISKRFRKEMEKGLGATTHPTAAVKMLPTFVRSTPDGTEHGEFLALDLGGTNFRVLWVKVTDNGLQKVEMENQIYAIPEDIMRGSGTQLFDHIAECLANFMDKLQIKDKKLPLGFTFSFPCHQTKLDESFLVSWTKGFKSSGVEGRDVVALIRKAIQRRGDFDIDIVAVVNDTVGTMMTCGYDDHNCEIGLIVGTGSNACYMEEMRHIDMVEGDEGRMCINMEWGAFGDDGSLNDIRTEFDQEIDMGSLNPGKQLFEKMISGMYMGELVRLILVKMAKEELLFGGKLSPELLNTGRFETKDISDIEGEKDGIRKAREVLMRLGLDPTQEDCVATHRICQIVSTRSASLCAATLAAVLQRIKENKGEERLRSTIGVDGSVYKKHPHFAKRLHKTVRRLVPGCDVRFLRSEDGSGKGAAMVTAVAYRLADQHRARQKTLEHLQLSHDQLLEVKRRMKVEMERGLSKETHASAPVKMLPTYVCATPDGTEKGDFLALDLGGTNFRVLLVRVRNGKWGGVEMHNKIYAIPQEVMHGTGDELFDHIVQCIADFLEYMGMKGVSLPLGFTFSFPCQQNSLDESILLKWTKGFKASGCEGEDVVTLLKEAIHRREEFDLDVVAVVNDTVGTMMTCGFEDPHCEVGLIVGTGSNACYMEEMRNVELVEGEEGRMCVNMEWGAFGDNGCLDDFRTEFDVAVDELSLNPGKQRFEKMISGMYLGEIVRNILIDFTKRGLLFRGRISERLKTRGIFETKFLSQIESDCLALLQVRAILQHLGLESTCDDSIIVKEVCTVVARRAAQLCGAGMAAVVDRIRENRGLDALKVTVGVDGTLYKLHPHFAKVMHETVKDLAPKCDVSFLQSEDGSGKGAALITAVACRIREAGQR

With CC/C=C\CC1C(=O)CCC1CC(=O)Oc1cccc2cccnc12 (centres unmarked) [Formula C] as the compound, how does the IC50 (Colon CXF HCT 116) read?
Its IC50 is 4330 nM.

And the IC50 [1]?
The IC50 was 206 nM.

And the IC50 [2]?
Its IC50 is 985 nM.

What about the IC50 [3] of the same compound?
Its IC50 is 2760 nM.

And the IC50 (Liver (HCC) LIXFH Hep G2)?
Its IC50 is 5200 nM.

And the IC50 [4]?
Its IC50 is 1500 nM.

What about the IC50 [5] of the same compound?
Its IC50 is 6820 nM.

What about the IC50 (Lung (SCLC) LXFS 538) of the same compound?
The IC50 was 163 nM.

What about the IC50 [6] of the same compound?
Its IC50 is 1380 nM.

What about the IC50 (Breast MAXF MDA-MB-231) of the same compound?
The IC50 was 1700 nM.

And the IC50 (Breast MAXF 401)?
Its IC50 is 4220 nM.

And the IC50 (Prostate PRXF MRI-H-1579)?
Its IC50 is 1660 nM.

And the IC50 (Prostate PC-3)?
Its IC50 is 1200 nM.

And the IC50 [7]?
Its IC50 is 604 nM.

And the “cytochrome C levels in the mitochondrial fraction” value (A431 cells)?
The value was “reduction of cytochrome C levels”.

And the “share of tested cancer types with strong anti-proliferation effect (IC50<2 uM)” value [8]?
The value was 70%.

What about the HK1 catalytic activity (HK1) of the same compound?
Its HK1 catalytic activity is “does not affect; also recorded: did not affect the catalytic activity”.

And the HK2 catalytic activity (HK2)?
Its HK2 catalytic activity is “does not affect; also recorded: did not affect the catalytic activity”.

What about the skin irritation [9] of the same compound?
The skin irritation was “did not cause any irritation”.

What about the “systemic exposure of VDA-1102 or its major metabolite” value [10] of the same compound?
The value was “No systemic exposure”.
